Experimental data published in patent publication US10898469B2, “Imidazolylamide derivative” (Sumitomo Dainippon Pharma Co., Ltd., priority 2016, dated 2021).
Read-outs that look alike come from different tables or passages of the source.

What was measured:
[1] = Pharmacokinetic assay in tumor-bearing mice where HCT-116 cells were transplanted (Test Example 3); format: in vivo; conditions: female, BALB/cAnNCrlj-nu/nu, plasma, tumor-bearing nude mouse; for concentration at 1 h: read-out: Plasma concentrations after oral administration, 1 hour; for concentration at 2 h: read-out: Plasma concentrations after oral administration, 2 hours; for concentration at 6 h: read-out: Plasma concentrations after oral administration, 6 hours; for concentration at 24 h: read-out: Plasma concentrations after oral administration, 24 hours
Experimental: A 7- to 12-week-old nude mouse (BALB/cAnNCrlj-nu/nu, female, CHARLES RIVER LABORATORIES JAPAN, INC.) received intradermal transplantation of human colorectal cancer-derived HCT-116 cells (ATCC) in an amount of 3×10^6 cells/mouse around the ventral part. […] Blood was collected 1, 2, 6, and 24 hours after administration, and centrifuged to afford plasma samples. Methanol was added to the plasma samples so as to be adjusted to 80% of the final concentration. The samples were centrifuged and filtered to be deproteinized. Then, the test compound was detected and quantitated with LC-MS/MS (API4000, AB SCIEX). In quantitation, a calibration curve was prepared with mouse plasma comprising a known amount of the compound and Bezafibrate was used for the internal standard.
The test in Test Example 3 was performed for the compounds of Examples.
The following table and FIGS. 1 to 5 show temporal changes of the plasma concentrations of compounds after oral administration.

[2] = Solid state thermal stability; format: physicochemical; conditions: 70° C., vessel left open; for solid state thermal stability (change of form): stored for 12 weeks
Experimental: The solid state thermal stability was measured for the compounds of Examples 237 and 238 according to the following method. The compounds of Examples 237 and 238 were put into an isothermal vessel set at 70° C., and the samples were stored for 12 weeks under the condition that the vessel was left open. Each elemental analysis result for each compound after 12 weeks is shown as follows.

[3] = system: HCT-116 cells; experiment: Inhibition test for sphere-forming ability of cancer cells in the presence of BSA (Test Example 2), HCT-116; format: cell-based, human; conditions: HCT-116 cells, in the presence of 5% BSA, cultured 4 days
Outline: (§1)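 Spheres grown 4 days in ultra-low-attachment wells, 350-800 cells/well, in DMEM/F12 with 2% B27, 20 ng/mL EGF, 10 ng/mL bFGF, 5 μg/mL insulin and 5% BSA; 0.1% DMSO final. Viable cells read by CellTiter-Glo luminescence; Sphere IC50 (μmol/L) for 50% proliferation inhibition.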

[4] = system: HCT-116 cells; experiment: Inhibition test for sphere-forming ability of cancer cells (Test Example 1), HCT-116; format: cell-based, human; conditions: for IC50: HCT-116 cells, concentration for 50% inhibition of cell proliferation, read-out: IC50 (μmol/L) HCT-116 (Sphere IC50 value)
Outline: (§2)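 Sphere formation, non-adherent, serum-free: 350-800 cells/well, DMEM/F12 + 2% B27, 20 ng/mL EGF, 10 ng/mL bFGF, 5 μg/mL insulin. Compound in 0.1% DMSO final, 4 d. CellTiter-Glo luminescence; IC50 (μmol/L) for 50% inhibition of proliferation.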

[5] = system: FaDu cells; experiment: Inhibition test for sphere-forming ability of cancer cells in the presence of BSA (Test Example 2), FaDu; format: cell-based, human; conditions: in the presence of 5% BSA, cultured 4 days
Experimental: Human colorectal cancer-derived HCT-116 cells, human colon-adenocarcinoma-derived HT-29 cells, and human pharyngeal cancer-derived FaDu cells were available from American Type Culture Collection (ATCC). HCT-116 cells and HT-29 cells were cultured at 37° C. under 5% CO2 using the McCoy's 5a medium containing 10% fetal bovine serum (FBS) and 1% penicillin/streptomycin, and FaDu cells were cultured at 37° C. under 5% CO2 using the MEM medium containing 10% FBS, 1% non-essential amino acid, 1% sodium pyruvate, 5% bovine serum albumin (BSA), and 1% penicillin/streptomycin. HCT-116 cells, HT-29 cells, and FaDu cells were seeded in a 384 Well Black Clear Bottom Ultra-Low Attachment Microplate (Corning Cat. No. 3827) in an amount of 350-800 cells/well using the DMEM/F12 medium containing 2% B27 supplement (GIBCO), 20 ng/mL epidermal growth factor (EGF) (peprotech), 10 ng/mL basic fibroblast growth factor (bFGF) (peprotech), 5 μg/mL insulin (Sigma), 5% bovine serum albumin (BSA), and 1% penicillin/streptomycin. Each test compound was added into each well to adjust the final concentration of DMSO to 0.1%, and the cells were cultured for 4 days. The number of viable cells in each well was then measured with CellTiter-Glo® Luminescent Cell Viability Assay (Promega) to calculate the concentration of each test compound for 50% inhibition of cell proliferation (Sphere IC50 value; μmol/L).
The experiment of Test Example 2 was performed for each compound of each Example.
The concentration of each test compound for 50% inhibition of cell proliferation (Sphere IC50 value; μmol/L) is shown in the following Table.

[6] = system: FaDu cells; experiment: Inhibition test for sphere-forming ability of cancer cells (Test Example 1), FaDu; format: cell-based, human; conditions: concentration for 50% inhibition of cell proliferation, read-out: IC50 (μmol/L) FaDu (Sphere IC50 value)
Outline: as §2

[7] = system: HT-29 cells; experiment: Inhibition test for sphere-forming ability of cancer cells (Test Example 1), HT-29; format: cell-based, human; conditions: concentration for 50% inhibition of cell proliferation, read-out: IC50 (μmol/L) HT-29 (Sphere IC50 value)
Outline: as §2

[8] = system: HT-29 cells; experiment: Inhibition test for sphere-forming ability of cancer cells in the presence of BSA (Test Example 2), HT-29; format: cell-based, human; conditions: in the presence of 5% BSA, cultured 4 days
Outline: as §1

[9] = oral single dose 100 mg/kg, 20% Labrasol
[10] = oral single dose 150 mg/kg, 0.5% methylcellulose
[11] = oral single dose 60 mg/kg, 0.5% methylcellulose

## CC(=O)Nc1ccc(/C=C/C(=O)Nc2cn(Cc3cccc(OC(F)(F)F)c3)cn2)cc1 [Example 123]
[1]; [9]
  concentration at 1 h: 287 ng/mL
  concentration at 2 h: 837 ng/mL
  concentration at 6 h: 79 ng/mL
  concentration at 24 h: 62 ng/mL

## N#Cc1ccc(/C=C/C(=O)Nc2cn(Cc3cccc(Cl)c3)cn2)cc1OCCO [Example 129]
[1]; [9]
  concentration at 1 h: 465 ng/mL
  concentration at 2 h: 309 ng/mL
  concentration at 6 h: 271 ng/mL

## COc1ccc(/C=C/C(=O)Nc2cn(Cc3cccc(C(F)(F)F)c3)cn2)cc1OCCO [Example 128]
[1]; [9]
  concentration at 1 h: 4700 ng/mL
  concentration at 2 h: 610 ng/mL
  concentration at 6 h: 644 ng/mL
  concentration at 24 h: 13 ng/mL

## COc1ccc(C(=O)Nc2cn(Cc3cc(F)c(F)c(F)c3)cn2)cc1OC [Example 238, 3,4-Dimethoxy-N-[1-(3,4,5-trifluorobenzyl)-1H-imidazol-4-yl]benzamide tosilate]
[2]; 12 weeks
  Elemental analysis C (%) measured value after 12 weeks: 55.51%
  Elemental analysis F (%) measured value after 12 weeks: 10.15%
  Elemental analysis H (%) measured value after 12 weeks: 4.33%
  Elemental analysis N (%) measured value after 12 weeks: 7.48%
  Elemental analysis S (%) measured value after 12 weeks: 5.62%
[2]
  solid state thermal stability (change of form): not changed

## Cc1csc(NC(=O)c2cn(Cc3cccc(Cl)c3)cn2)n1 [Example 257]
[3]
  IC50: 7460 nM
[4]
  IC50: 0.8 µmol/L
[5]
  IC50: 4440 nM
[6]
  IC50: 0.71 µmol/L
[7]
  IC50: 0.8 µmol/L
[8]
  IC50: 5990 nM

## O=C(/C=C/c1cccnc1)Nc1cn(Cc2cccc(Cl)c2)cn1 [Example 120, (E)-N-(1-(3-chlorobenzyl)-1H-imidazol-4-yl)-3-(pyridin-3-yl)acrylamide]
[1]; [10]
  concentration at 1 h: 9220 ng/mL
  concentration at 2 h: 7040 ng/mL
  concentration at 6 h: 1200 ng/mL
  concentration at 24 h: 142 ng/mL

## Cc1cccc(NC(=O)c2cn(Cc3cccc(Cl)c3)cn2)n1 [Example 258]
[3]
  IC50: 9060 nM
[4]
  IC50: 0.77 µmol/L
[5]
  IC50: 5190 nM
[6]
  IC50: 0.71 µmol/L
[7]
  IC50: 0.7 µmol/L
[8]
  IC50: 5750 nM

## O=C(Nc1ccc(Cn2cccn2)cc1)c1cn(Cc2cccc(Cl)c2)cn1 [Example 260]
[3]
  IC50: 6810 nM
[4]
  IC50: 0.76 µmol/L
[5]
  IC50: 3090 nM
[6]
  IC50: 0.67 µmol/L
[7]
  IC50: 0.71 µmol/L
[8]
  IC50: 4090 nM

## COc1ccc(C(=O)Nc2cn(Cc3cc(F)c(F)c(F)c3F)cn2)cc1OC [Example 156]
[3]
  IC50: 5070 nM
[4]
  IC50: 0.54 µmol/L
[5]
  IC50: 420 nM
[6]
  IC50: 0.55 µmol/L
[7]
  IC50: 0.39 µmol/L
[8]
  IC50: 590 nM

## COc1ccc(C(=O)Nc2cn(Cc3cc(F)c(F)c(F)c3)cn2)cc1OC.Cl [Example 237, 3,4-dimethoxy-N-[1-(3,4,5-trifluorobenzyl)-1H-imidazol-4-yl]benzamide]
[2]; 12 weeks
  Elemental analysis C (%) measured value after 12 weeks: 54.71%
  Elemental analysis Cl (%) measured value after 12 weeks: 4.00%
  Elemental analysis F (%) measured value after 12 weeks: 13.74%
  Elemental analysis H (%) measured value after 12 weeks: 4.31%
  Elemental analysis N (%) measured value after 12 weeks: 10.28%
[2]
  solid state thermal stability (change of form): changed to 0.5 hydrochloride 0.5 hydrate
[1]; [11]
  concentration at 1 h: 13200 ng/mL
  concentration at 2 h: 9760 ng/mL
  concentration at 6 h: 3390 ng/mL
  concentration at 24 h: 4 ng/mL

## N#Cc1ccc(/C=C/C(=O)Nc2cn(Cc3cccc(Cl)c3)cn2)cc1OCCO [Example 35, (2E)-N-[1-(3-chlorobenzyl)-1H-imidazol-4-yl]-3-[4-cyano-3-(2-hydroxyethoxy)phenyl]prop-2-enamide]
[3]; Homo sapiens, HCT-116, 96 h
  IC50: 720 nM
[4]; Homo sapiens
  IC50: 0.08 µmol/L
[4]; Test Example 1, summary in words, cell line not given (HCT-116, HT-29, FaDu tested)
  inhibitory effect on the sphere-forming ability of cancer cells: particularly potent inhibitory effect
[5]; Homo sapiens, 96 h
  IC50: 60 nM
[6]; Homo sapiens
  IC50: 0.08 µmol/L
[7]; Homo sapiens
  IC50: 0.07 µmol/L
[8]; Homo sapiens, 96 h
  IC50: 540 nM

## O=C(Nc1cn(Cc2cccc(Cl)c2)cn1)c1cnc2[nH]ccc2c1 [Example 177]
[3]
  IC50: > 10000 nM
[4]
  IC50: 9.96 µmol/L
[5]
  IC50: 5260 nM
[6]
  IC50: 3.62 µmol/L
[7]
  IC50: 6.75 µmol/L
[8]
  IC50: 6390 nM

## O=C(Nc1ccncn1)c1cn(Cc2cccc(Cl)c2)cn1 [Example 261]
[3]
  IC50: 860 nM
[4]
  IC50: 0.61 µmol/L
[5]
  IC50: 480 nM
[6]
  IC50: 0.59 µmol/L
[7]
  IC50: 0.46 µmol/L
[8]
  IC50: 520 nM

## COc1ccc(C(=O)Nc2cn(Cc3c(F)ccc(F)c3F)cn2)cc1OC [Example 155]
[3]
  IC50: > 10000 nM
[4]
  IC50: 3.05 µmol/L
[5]
  IC50: 7030 nM
[6]
  IC50: 8.72 µmol/L
[7]
  IC50: 6.62 µmol/L
[8]
  IC50: > 10000 nM

## O=C(/C=C/c1ccc(NC(=O)CO)cc1)Nc1cn(Cc2cccc(Cl)c2)cn1 [Example 7, (E)-N-(1-(3-Chlorobenzyl)-1H-imidazol-4-yl)-3-(4-(2-hydroxyacetylamino)phenyl)acrylamide]
[3]; Homo sapiens, HCT-116, 96 h
  IC50: 790 nM
[4]; Homo sapiens
  IC50: 0.66 µmol/L
[5]; Homo sapiens, 96 h
  IC50: 460 nM
[6]; Homo sapiens
  IC50: 0.35 µmol/L
[7]; Homo sapiens
  IC50: 0.13 µmol/L
[8]; Homo sapiens, 96 h
  IC50: 550 nM
